Patent publication US20150320770A1, “NOVEL COMPOSITIONS AND METHODS FOR TREATING PROSTATE CANCER” (Tokai Pharmaceuticals, Inc., priority 2011, published 2015)

Test: API solubility assessment in common solvents
Assay type: physicochemical
Method: The solubility of the API was assessed in several common solvents systems to ensure obtaining the maximum API concentration for the spray drying process. […] Subsequently this binary solvent mixture was changed to the 2:1, methanol:acetone mixture due to long secondary drying times observed with the 2:1, methanol:THF system.

C[C@]12CC[C@H](O)CC1=CCC1C2CC[C@]2(C)C(n3cnc4ccccc43)=CCC12 (stereo partly drawn) [Compound (1), 3-β-Hydroxy17-(1H-benzimidazol-1-yl)androsta-5,16-diene]
API Solubility (%) (2:1 Acetone:Methanol): 4.16% | API Solubility (%) (2:1 Methanol:Acetone): 7.28% | API Solubility (%) (2:1 Methanol:Tetrahydrofuran): 16.64% | API Solubility (%) (Acetone): 1.04% | API Solubility (%) (Ethanol): 4.68% | API Solubility (%) (Ethyl Acetate): 0% | API Solubility (%) (Methanol): 4.16% | API Solubility (%) (Tetrahydrofuran): 7.28%
